Data on one compound can be found in paper PMC6804264, “Enlarged Pore Size Chiral Mesoporous Silica Nanoparticles Loaded Poorly Water-Soluble Drug Perform Superior Delivery Effect” (Molecules, 2019).

SMILES strings stand for the structures.

Series [1] in a line: In vivo pharmacokinetics after oral (intragastric) administration. As to conditions: male, Wistar, rat, rats, 40 mg/kg NMS, plasma. How it is done: 9 Male Wistar rats weighing 200 ± 20 g were randomly split into three groups (A group, NMS; B group, NMS/CMSN; C group, NMS/E-CMSN) and fasted for 12 h but given free access to water prior to the experiment. The three samples were suspended in 1.5 mL normal saline with the drug dose of 40 mg/kg and then orally administered (intragastric administration) to rats. Blood media (0.5 mL) of each animal was collected via the suborbital vein at different time intervals after administration and immediately centrifuged at 8000 rpm for 10 min to collect plasma. Subsequently, the obtained plasma was then stored at […] until analysis. 200 μL plasma sample was mixed with 80 μL of an internal standard solution (0.5 mg/mL) and 400 μL acetonitrile. The mixture was vortexed for 2 min. After centrifugation at 10,000 rpm for 5 min, the supernatant of each sample (20 μL) was subjected to HPLC analysis. The working conditions for HPLC analysis included: Mobile phase: methanol: pH 7.3 potassium dihydrogen phosphate buffer (65:35, v/v); Column temperature: 30 °C; Analysis wavelength: 370 nm; Flow rate: 1.0 mL/min.

Series [2] has as its system right hind ankle swelling after carrageenan injection into the paw. Nature of the series: Anti-inflammatory pharmacodynamics (carrageenan paw model, right hind ankle perimeter). The settings on record: rats, oral, 40 mg/kg NMS. The format is in vivo, male Sprague–Dawley rats. Here is the method: Right hind ankle perimeter of rats was ascertained to study the anti-inflammatory biological effect of […] or NMS/E-CMSN. Twelve male Sprague-Dawley rats (200 ± 20 g) were separated into four groups (Group A: Normal saline; Group B: NMS; Group C: NMS/CMSN; Group D: NMS/E-CMSN) and then fasted overnight before experiment. The rats in Group B, Group C and Group D were administered orally with corresponding nanoparticles containing 40 mg/kg NMS, while the rats in Group A were administered orally with normal saline. Afterwards, the perimeters of right hind ankles were ascertained. After half an hour, 0.1 mL 1% carrageenan solution was injected subcutaneously into the paw of each rat. […] Then, the following parameters were calculated. (2) Repressionrate(%)=([…]0)positive (3) Swelling rate(%)=Ct-C0/C0×100 where C0 denotes original perimeter of right hind ankle; Ct is the measured perimeter of right hind ankle.

The nature of series [3]: Contact angle measurement (wetting property). The format is physicochemical. As to conditions: pH 6.8 PBS; pH 6.8 PBS including trysin (Figure 6). Here is the method: To study the wettability differences after loading NMS into the two carriers, dynamic contact angle measurement was performed using JCY series (Shanghai, China). The working conditions covered: Automatic contact angle meter model, pressurized tablet of sample, as well as a drop of dissolution medium (2 μL). The measurement was started when dissolution medium dropped onto the tablet.

For series [4] the following is noted: stated in the introduction, no reference given; cited from earlier work.

For `CS(=O)(=O)Nc1ccc([N+](=O)[O-])cc1Oc1ccccc1` [NMS, nimesulide], in series [1] (n = 3), the AUC(0-t) was 199 ± 66.6 µg·h/mL, the peak level (Cmax) was 25400 ± 9680 ng/mL and the Tmax was 4 h. Further, the MRT last in series [1] (n = 3, read-out: MRT(0–t)) was 5.73 ± 0.354 h. Moreover, the half-life in series [1] (n = 3, read-out: t1/2z (converted)) was 5.08 ± 2.81 h. Further, the “time at which anti-inflammatory function started” value in series [2] was determined as 0.5 h. Besides, the “anti-inflammatory effect according to swelling rate profiles” value in series [2] (0.5-4 h) was “exerted anti-inflammatory pharmacodynamics effect”. Moreover, in series [3], the “wetting property / contact angle” value is “poor water wetting property”. For the same compound, in series [4], the LogP value is 3.79.
